Test [1] has as its target T1, progesterone receptor (Homo sapiens, UniProt P06401).
T1 sequence (P06401 1-933): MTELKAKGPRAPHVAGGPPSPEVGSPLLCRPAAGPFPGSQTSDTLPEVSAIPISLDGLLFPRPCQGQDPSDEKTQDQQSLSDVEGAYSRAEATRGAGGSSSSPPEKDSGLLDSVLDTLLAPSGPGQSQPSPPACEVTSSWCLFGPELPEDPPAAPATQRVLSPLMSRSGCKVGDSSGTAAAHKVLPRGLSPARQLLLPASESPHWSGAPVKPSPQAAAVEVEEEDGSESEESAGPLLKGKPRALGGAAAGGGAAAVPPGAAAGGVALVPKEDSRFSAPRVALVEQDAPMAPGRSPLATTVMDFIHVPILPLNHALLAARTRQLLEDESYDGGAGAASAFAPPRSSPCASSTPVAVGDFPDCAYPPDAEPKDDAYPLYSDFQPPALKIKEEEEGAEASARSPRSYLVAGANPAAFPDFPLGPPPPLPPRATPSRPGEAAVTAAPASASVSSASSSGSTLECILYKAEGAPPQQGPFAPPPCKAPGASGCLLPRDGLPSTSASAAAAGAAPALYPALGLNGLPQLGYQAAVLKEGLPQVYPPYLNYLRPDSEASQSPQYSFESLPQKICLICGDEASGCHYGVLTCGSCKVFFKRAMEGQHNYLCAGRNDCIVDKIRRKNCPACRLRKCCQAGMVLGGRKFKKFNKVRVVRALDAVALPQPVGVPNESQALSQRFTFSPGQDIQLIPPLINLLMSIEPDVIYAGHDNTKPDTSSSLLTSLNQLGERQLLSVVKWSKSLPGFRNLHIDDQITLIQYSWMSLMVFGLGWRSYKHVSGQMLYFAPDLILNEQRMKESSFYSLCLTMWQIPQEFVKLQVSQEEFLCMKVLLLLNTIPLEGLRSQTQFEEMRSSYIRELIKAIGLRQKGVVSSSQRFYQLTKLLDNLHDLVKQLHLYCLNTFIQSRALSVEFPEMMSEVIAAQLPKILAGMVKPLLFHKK
Description: T47D alkaline phosphatase assay for progesterone receptor modulator (antagonist) activity. Type of test: cell-based. Also noted: Frozen T47D cells are thawed in a 37° C. water bath and diluted to 280,000 cells/mL in culture medium; endogenous in cells; host or cells: T47D cells. The following applies: T47D cells, antagonist mode in the presence of 1 nM progesterone, 24 hours. The method, then: (§1) An assay was performed to identify compounds having progesterone receptor modulator activity. This assay identifies progestins or antiprogestins by determining a compound's effect on alkaline phosphatase activity in T47D cells.
(§2) Culture medium: DMEM:F12 (1:1) (GIBCO, BRL) supplemented with 5% (v/v) charcoal stripped fetal bovine serum (not heat-inactivated), 100 U/mL penicillin, 100 μg/mL streptomycin, and 2 mM the GlutaMax® reagent (GIBCO, BRL).
(§3) Alkaline phosphatase assay buffer: • I. 0.1M Tris-HCl, pH 9.8, containing 0.2% the Triton™ X-100 reagent • II. 0.1M Tris-HCl, pH 9.8, containing 4 mM p-nitrophenyl phosphate (Sigma).
(§4) Frozen T47D cells are thawed in a 37° C. water bath and diluted to 280,000 cells/mL in culture medium. To each well in a 96-well plate (Falcon, Becton Dickinson Labware), 180 μL of diluted cell suspension is added.
Twenty μL of reference or test compounds diluted in the culture medium is then added to each well. When testing for progestin antagonist activity, reference antiprogestins or test compounds are added in the presence of 1 nM progesterone. […]
Analysis of dose-response data. […] EC50 or IC50 values are calculated from the retransformed values. […]
Progesterone and trimegestone are reference progestins and RU486 is the reference antiprogestin. All reference compounds are run in full dose response curves and the EC50 and IC50 values are calculated. […]

Test [2] has as its target T1, progesterone receptor. Described as above. The following applies: T47D cells, antagonist mode in the presence of 1 nM progesterone, 24 hours. Type of test: cell-based. Further details: endogenous in cells; host or cells: T47D cells. How it is done: as §1, §2, §3, §4
Twenty μL of reference or test compounds diluted in the culture medium is then added to each well. When testing for progestin antagonist activity, reference antiprogestins or test compounds are added in the presence of 1 nM progesterone. The cells are incubated at 37° C. in a 5% CO2/humidified atmosphere for 24 hours.
For high throughput screening, one concentration of each compound will be tested at 0.3 μg/mL. Based on an average molecular weight of 300 g/mol for the compounds in the library, the concentration is approximately 1 μM. Subsequently, active compounds will be tested in dose response assays to determine EC50 and IC50.
At the end of treatment, the medium is removed from the plate. Fifty μL of assay buffer I is added to each well. The plates are shaken in a titer plate shaker for 15 minutes. Then 150 μL of assay buffer II is added to each well. Optical density measurements are taken at 5 minute intervals for 30 minutes at a test wavelength of 405 nm.
Analysis of dose-response data. For reference and test compounds, a dose response curve is generated for dose (x-axis) vs. the rate of enzyme reaction (slope) (y-axis). Square root-transformed data are used for analysis of variance and nonlinear dose response curve fitting for both agonist and antagonist modes. Huber weighting is used to down-weight the effects of outliers. EC50 or IC50 values are calculated from the retransformed values. The JMP® software (SAS Institute, Inc.) is used for both one-way analysis of variance and non-linear dose response analysis in both single dose and dose response studies.
Progesterone and trimegestone are reference progestins and RU486 is the reference antiprogestin. All reference compounds are run in full dose response curves and the EC50 and IC50 values are calculated.
In the table provided above, the IC50 values show the relative progesterone receptor antagonist activity in this assay. Lower numbers are indicative of higher potency, i.e., greater PR antagonist activity. Further, the assay has a standard deviation of about ±6.

One may read the IC50 as the point on the concentration scale where inhibition reaches its midpoint.

As to `CN(C#N)c1ccc(-c2ccc(C#N)n2C)cc1` [Example 38], the IC50 in test [1] amounted to 88.2 nM.
Regarding `Cn1c(C#N)ccc1-c1ccc(N2CCCS2(=O)=O)cc1` [Example 57, 5-[4-(1,1-dioxidoisothiazolidin-2-yl)phenyl]-1-methyl-1H-pyrrole-2-carbonitrile], the IC50 in test [2] is 180 nM.
Still for that read-out and setting: in the case of `CCCS(=O)(=O)Nc1ccc(-c2ccc(C#N)n2C)cc1OC(F)(F)F` [Example 61, N-[4-(5-cyano-1-methyl-1H-pyrrol-2-yl)-2-(trifluoromethoxy)phenyl]propane-1-sulfonamide] it was 40.7 nM; in that of `CC(C)S(=O)(=O)Nc1ccc(-c2ccc(C#N)n2C)cc1` [Example 23, N-[4-(5-cyano-1-methyl-1H-pyrrol-2-yl)phenyl]propane-2-sulfonamide], 1.5 nM; in that of `CC(C)c1cc(-c2ccc(C#N)n2C)ccc1NC#N` [Example 32, [4-(5-cyano-1-methyl-1H-pyrrol-2-yl)-2-isopropylphenyl]cyanamide], less than 300 nM.
On to `CCCS(=O)(=O)Nc1ccc(-c2ccc(C#N)n2C)cc1` [Example 16, N-[4-(5-cyano-1-methyl-1H-pyrrol-2-yl)phenyl]propane-1-sulfonamide], for which the half-inhibitory concentration (IC50) in test [2] was found to be 9.8 nM.
On to `CCCCS(=O)(=O)Nc1ccc(-c2ccc(C#N)n2C)c(F)c1` [Example 43, N-[4-(5-cyano-1-methyl-1H-pyrrol-2-yl)-3-fluorophenyl]butane-1-sulfonamide], for which, in test [2], the IC50 was found to be 6.6 nM.
With `Cn1c(C#N)ccc1-c1ccc(NC(=O)C2CCC2)cc1` [Example 10, N-[4-(5-cyano-1-methyl-1H-pyrrol-2-yl)phenyl]cyclobutane-carboxamide], in test [2], the IC50 came to 83.9 nM.
Take `CC(C)C(=O)Nc1ccc(-c2ccc(C#N)n2C)cc1` [Example 5, N-[4-(5-cyano-1-methyl-1H-pyrrol-2-yl)phenyl]-2-methylpropanamide]: in test [2], the concentration for half-maximal inhibition (IC50) turned out to be 168 nM.
